The source of these data is patent US11117947B2, “Double-acylated GLP-1 derivatives” (Novo Nordisk A/S, priority 2011, dated 2021).

Numbered stars: 1 amine (or outer) side, 2 acyl side, 3 side chain; on linkers, the order of the positions; unused ones are H or OH. Side chains are listed from the residue outwards. Peptide text beside a SMILES is read from it. * marks the point of attachment. γGlu = O=C(O)[C@H](CCC(=O)[*:2])N[*:1]; C14 diacid = O=C(O)CCCCCCCCCCCCC(=O)*; AEEA = NCCOCCOCC(=O)O

The target of one series is T1, human GLP-1 receptor (Homo sapiens, UniProt P43220).
T1 construct: expressed in transfected cells; membranes
In words: GLP-1 receptor binding: displacement of 125I-GLP-1 (SPA) at low and high albumin. The note with it: low albumin, 0.001% HSA; read-out: IC50/nM (low HSA). A digest of the protocol: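 Membranes from hamster cells stably transfected with the receptor, with WGA SPA beads and 0.06 nM [^125I]-GLP-1(7-36)NH2, incubated 120 min at 30 °C with shaking.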

Series [1] can be described thus: Estimate of oral bioavailability: gut injection in rat (caprate), exposure in plasma. The note with it: injection in jejunum, 1000 uM in 55 mg/ml sodium caprate, plasma concentration (pM) at 30 min divided by dosing solution concentration (μM), mean n=4. In kind it is in vivo. A digest of the protocol:
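Male Sprague Dawley rats (~240 g, n=4) received 100 μl of 1000 uM derivative in 55 mg/ml sodium caprate by catheter into proximal or mid jejunum. Tail-vein EDTA plasma was sampled up to 240 min. Peptide was quantified by two-antibody bead chemiluminescence immunoassay, giving mean concentration-time profiles (pmol/l).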

T1 sequence (P43220 24-463): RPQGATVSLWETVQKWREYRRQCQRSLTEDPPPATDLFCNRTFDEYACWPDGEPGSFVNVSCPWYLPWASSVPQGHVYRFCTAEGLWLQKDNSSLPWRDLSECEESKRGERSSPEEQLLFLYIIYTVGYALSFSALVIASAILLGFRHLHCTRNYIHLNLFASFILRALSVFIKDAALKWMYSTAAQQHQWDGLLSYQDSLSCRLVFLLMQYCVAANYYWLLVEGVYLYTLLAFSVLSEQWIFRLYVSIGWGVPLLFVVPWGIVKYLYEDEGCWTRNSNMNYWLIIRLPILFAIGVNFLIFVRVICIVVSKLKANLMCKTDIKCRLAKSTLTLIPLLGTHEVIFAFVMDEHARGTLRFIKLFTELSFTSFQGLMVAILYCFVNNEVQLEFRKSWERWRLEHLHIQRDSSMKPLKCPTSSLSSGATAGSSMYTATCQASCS

Turning to `CC[C@H](C)[C@H](NC(=O)[C@H](Cc1ccccc1)NC(=O)[C@H](CCCCNC(=O)COCCOCCNC(=O)COCCOCCNC(=O)CC[C@H](NC(=O)CCCCCCCCCCCCC(=O)O)C(=O)O)NC(=O)[C@H](CCCNC(=N)N)NC(=O)[C@@H](NC(=O)[C@H](C)NC(=O)[C@H](CCC(N)=O)NC(=O)CNC(=O)[C@H](CCC(=O)O)NC(=O)[C@H](CC(C)C)NC(=O)[C@H](Cc1ccc(O)cc1)NC(=O)[C@H](CO)NC(=O)[C@H](CO)NC(=O)[C@@H](NC(=O)[C@H](CC(=O)O)NC(=O)[C@H](CO)NC(=O)[C@@H](NC(=O)[C@H](Cc1ccccc1)NC(=O)[C@@H](NC(=O)CNC(=O)[C@H](CCC(=O)O)NC(=O)[C@H](C)NC(=O)[C@@H](N)Cc1c[nH]cn1)[C@@H](C)O)[C@@H](C)O)C(C)C)C(C)C)C(=O)N[C@@H](C)C(=O)N[C@@H](Cc1c[nH]cn1)C(=O)N[C@@H](CC(C)C)C(=O)N[C@H](C(=O)N[C@@H](CCC(N)=O)C(=O)NCC(=O)N[C@@H](CCCNC(=N)N)C(=O)N[C@@H](CCCCNC(=O)COCCOCCNC(=O)COCCOCCNC(=O)CC[C@H](NC(=O)CCCCCCCCCCCCC(=O)O)C(=O)O)C(=O)O)C(C)C` [Example 16, N^ε27-[2-[2-[2-[[2-[2-[2-[[(4S)-4-carboxy-4-(13-carboxytridecanoylamino)butanoyl]amino]ethoxy]ethoxy]acetyl]amino]ethoxy]ethoxy]acetyl], N^ε37-[2-[2-[2-[[2-[2-[2-[[(4S)-4-carboxy-4-(13-carboxytridecanoylamino)butanoyl]amino]ethoxy]ethoxy]acetyl]amino]ethoxy]ethoxy]acetyl]-[Val^25,Arg^26,Lys^27,His^31,Gln^34,Lys^37]-GLP-1-(7-37)-peptide] (H-HAEGTFTSDVSSYLEGQAVRK([AEEA-AEEA-γGlu-C14 diacid])FIAHLVQGRK([AEEA-AEEA-γGlu-C14 diacid])-OH; N-terminus and C-terminus assumed), the IC50 at human GLP-1 receptor turned out to be 0.2 nM. Further, the “Dose-corrected exposure at 30 min” value in series [1] is recorded as 115.

In the case of `CC[C@H](C)[C@H](NC(=O)[C@H](Cc1ccccc1)NC(=O)[C@H](CCCCNC(=O)CC[C@H](NC(=O)COCCOCCNC(=O)COCCOCCNC(=O)CCCCCCCCCCCCC(=O)O)C(=O)O)NC(=O)[C@H](CCCNC(=N)N)NC(=O)[C@@H](NC(=O)[C@H](C)NC(=O)[C@H](CCC(N)=O)NC(=O)[C@H](CCCCNC(=O)CC[C@H](NC(=O)COCCOCCNC(=O)COCCOCCNC(=O)CCCCCCCCCCCCC(=O)O)C(=O)O)NC(=O)[C@H](CCC(=O)O)NC(=O)[C@H](CC(C)C)NC(=O)[C@H](Cc1ccc(O)cc1)NC(=O)[C@H](CO)NC(=O)[C@H](CO)NC(=O)[C@@H](NC(=O)[C@H](CC(=O)O)NC(=O)[C@H](CO)NC(=O)[C@@H](NC(=O)[C@H](Cc1ccccc1)NC(=O)[C@@H](NC(=O)CNC(=O)[C@H](CCC(=O)O)NC(=O)[C@H](C)NC(=O)[C@@H](N)Cc1c[nH]cn1)[C@@H](C)O)[C@@H](C)O)C(C)C)C(C)C)C(=O)N[C@@H](CCC(=O)O)C(=O)N[C@@H](Cc1c[nH]c2ccccc12)C(=O)N[C@@H](CC(C)C)C(=O)N[C@H](C(=O)N[C@@H](CCC(N)=O)C(=O)NCC(=O)N[C@@H](CCCNC(=N)N)C(=O)NCC(=O)O)C(C)C` [Example 20, N^ε22-[(4S)-4-carboxy-4-[[2-[2-[2-[[2-[2-[2-(13-carboxytridecanoylamino)ethoxy]ethoxy]acetyl]amino]ethoxy]ethoxy]acetyl]amino]butanoyl], N^ε27-[(4S)-4-carboxy-4-[[2-[2-[2-[[2-[2-[2-(13-carboxytridecanoylamino)ethoxy]ethoxy]acetyl]amino]ethoxy]ethoxy]acetyl]amino]butanoyl]-_[Lys^22,Val^25TArg^26,Lys^27,Glu^30,Gln^34]-GLP-1-(7-37)-peptide] (H-HAEGTFTSDVSSYLEK([γGlu-AEEA-AEEA-C14 diacid])QAVRK([γGlu-AEEA-AEEA-C14 diacid])FIEWLVQGRG-OH; N-terminus and C-terminus assumed), the IC50 on human GLP-1 receptor turned out to be 0.19 nM. In series [1], the “Dose-corrected exposure at 30 min” value was 123.
